Measured values: US20190177284A1, “TETRAZOLYL-CONTAINING CYCLOPROPANECARBOXAMIDES” (Bayer Pharma Aktiengesellschaft, priority 2017, published 2019)
pIC50: −log10 of the molar value.

The compounds below were run against T1, human Bradykinin B1 receptor (Homo sapiens, UniProt P46663) (assay: Calcium flux Assay (FLIPR) with cells expressing human Bradykinin B1 receptor (hB1)). Settings: absence of 0.1% BSA in assay buffer; CHO-K1 cell line expressing human B1 receptor; agonist Lys-(Des-Arg)-Bradykinin; read-out: hB1 free IC50.
T1 construct: host or cells: CHO-K1
T1 sequence (P46663 1-353): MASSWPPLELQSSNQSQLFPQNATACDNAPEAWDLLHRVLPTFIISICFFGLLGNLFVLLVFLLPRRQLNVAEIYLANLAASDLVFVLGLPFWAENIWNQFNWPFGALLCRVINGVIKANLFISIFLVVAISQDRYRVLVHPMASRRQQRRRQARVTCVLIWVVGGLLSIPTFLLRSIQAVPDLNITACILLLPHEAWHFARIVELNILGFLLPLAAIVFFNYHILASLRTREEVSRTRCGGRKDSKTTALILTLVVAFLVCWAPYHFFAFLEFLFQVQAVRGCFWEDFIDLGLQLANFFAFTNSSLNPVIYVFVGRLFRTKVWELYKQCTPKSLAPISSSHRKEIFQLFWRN
Assay type: cell-based
Method: The potency to inhibit the Bradykinin B1 receptor was determined for the compound examples of this invention in a cell-based fluorescent calcium-mobilisation assay. The assay measures the ability of compound examples to inhibit Bradykinin B1 receptor agonist-induced increase of intracellular free Ca^2+ in the cell line expressing Bradykinin B1 receptor. Specifically, calcium indicator-loaded cells are pre-incubated in the absence or presence of different concentrations of compound examples followed by the stimulation with a selective Bradykinin B1 receptor agonist peptide. The change of the intracellular Ca^2+ concentration is monitored with a fluorescent plate reader FLIPR^TETRA®
Calcium flux Assays (FLIPR) with cells expressing human Bradykinin B1 receptor (hB1) Calcium flux Assay (FLIPR) with recombinant cells for Bradykinin B1 receptor antagonist, either in the presence (hB1 IC50) or absence (hB1 free IC50) of 0.1% Bovine Serum Albumin (BSA) in assay buffer.
CHO—K1 cell line expressing human B1 receptor was purchased from Euroscreen (Gosselies, Belgium, with reference name hB1-D1). The cells were grown in Nutrient Mixture Ham's F12 (Sigma) containing 10% Foetal bovine serum (Sigma) and 400 μg/mL G418 (Sigma), 5 μg/mL puromycin (Sigma).
For the calcium flux assay, 80% confluent cells were detached from the culture vessels with Versene (Gibco), and seeded into 384-well plates (Cell binding Surface; Corning, N.Y.; #3683) at a density of 15,000 cells per well. Cells were seeded in a volume of 50 μL in medium without antibiotics and incubated overnight in a humidified atmosphere with 5% CO2 at 37° C. […] The calcium indicator loaded cells were incubated at 37° C. for 2 hrs. Extracellular dye was then removed and each well was filled with 45 μL of assay buffer. Cell plates were kept in dark until used. Example compounds were assayed at 8 concentrations in triplicate. Serial 10-fold dilutions in 100% DMSO were made at a 100-times higher concentration than the final concentration, and then diluted 1:10 in assay buffer. 5 μL of each diluted compound was added to the well of cell plates (yielding final concentration with 1% DMSO), and incubated for 30 min at 28° C. before the addition of B1 receptor agonist on the FLIPR instrument.
Agonist plates contained the agonist Lys-(Des-Arg)-Bradykinin (Bachem, Brackley) at 3.5×EC90 in assay buffer with 1% DMSO. The addition of agonist 20 μl per well to the assay plate was carried out on the FLIPR instrument while continuously monitoring Ca^2+-dependent fluorescence at 538 nm. A peptide antagonist Lys-(Des-Arg-Leu)-Bradykinin (Bachem, Brackley) at 20 μM was used to determine the full inhibition as control.
Peak fluorescence was used to determine the response to agonist obtained at each concentration of example compound by the following equation:
% Response=100*(RFU(example compound)−RFU(control))/(RFU(DMSO)−RFU(control)) • RFU means relative fluorescence units. • Control means full inhibition by the peptide antagonist Lys-(Des-Arg-Leu)-Bradykinin at 20
The response values were plotted against the logarithm of the example compound concentrations. The example compounds were tested in triplicates per plate and mean values were plotted in Excel XLfit to determine IC50 values, percentage of maximal inhibition and the Hill slopes.
IC50 values of example compounds in Calcium flux Assay (FLIPR) as shown in table 1 were determined according to the protocol described above in the absence of 0.1% BSA in assay buffer.

Row | pIC50 | Compound
1 | 6.88 | O=C(NC1CCOCC1)c1ccc(NC(=O)C2(c3ccc(C(F)(F)F)cc3F)CC2)cc1-c1nnn[nH]1 [Example 45, 4-[({1-[2-Fluoro-4-(trifluoromethyl)phenyl]cyclopropyl}carbonyl)amino]-N-(tetrahydro-2H-pyran-4-yl)-2-(1H-tetrazol-5-yl)benzamide]
2 | 7.22 | O=C(NCC1CCOCC1)c1ccc(NC(=O)C2(c3ccc(C(F)(F)F)cc3F)CC2)cc1-c1nnn[nH]1 [Example 48, 4-[({1-[2-Fluoro-4-(trifluoromethyl)phenyl]cyclopropyl}carbonyl)amino]-N-(tetrahydro-2H-pyran-4-ylmethyl)-2-(1H-tetrazol-5-yl)benzamide]
3 | 7.05 | COC[C@@H](C)NC(=O)c1ccc(NC(=O)C2(c3ccc(C(F)(F)F)cc3F)CC2)cc1-c1nnn[nH]1 [Example 50, 4-[({1-[2-Fluoro-4-(trifluoromethyl)phenyl]cyclopropyl}carbonyl)amino]-N-[(2R)-1-methoxypropan-2-yl]-2-(1H-tetrazol-5-yl)benzamide]
4 | 6.39 | COC[C@H](C)NC(=O)c1ccc(NC(=O)C2(c3ccc(C(F)(F)F)cc3F)CC2)cc1-c1nnn[nH]1 [Example 51, 4-[({1-[2-Fluoro-4-(trifluoromethyl)phenyl]cyclopropyl}carbonyl)amino]-N-[(2S)-1-methoxypropan-2-yl]-2-(1H-tetrazol-5-yl)benzamide]
5 | 6.84 | COC(C)(C)CNC(=O)c1ccc(NC(=O)C2(c3ccc(C(F)(F)F)cc3F)CC2)cc1-c1nnn[nH]1 [Example 52, 4-[({1-[2-Fluoro-4-(trifluoromethyl)phenyl]cyclopropyl}carbonyl)amino]-N-(2-methoxy-2-methylpropyl)-2-(1H-tetrazol-5-yl)benzamide]
6 | 5.44 | O=C(N[C@@H]1CCOC1)c1ccc(NC(=O)C2(c3ccc(C(F)(F)F)cc3F)CC2)cc1-c1nnn[nH]1 [Example 53, 4-[({1-[2-Fluoro-4-(trifluoromethyl)phenyl]cyclopropyl}carbonyl)amino]-N-[(3R)-tetrahydrofuran-3-yl]-2-(1H-tetrazol-5-yl)benzamide]
7 | 5.82 | O=C(N[C@H]1CCOC1)c1ccc(NC(=O)C2(c3ccc(C(F)(F)F)cc3F)CC2)cc1-c1nnn[nH]1 [Example 54, 4-[({1-[2-Fluoro-4-(trifluoromethyl)phenyl]cyclopropyl}carbonyl)amino]-N-[(3S)-tetrahydrofuran-3-yl]-2-(1H-tetrazol-5-yl)benzamide]
8 | 5.75 | CC(C)CN(C)C(=O)c1ccc(NC(=O)C2(c3ccc(C(F)(F)F)cc3F)CC2)cc1-c1nnn[nH]1 [Example 55, 4-[({1-[2-Fluoro-4-(trifluoromethyl)phenyl]cyclopropyl}carbonyl)amino]-N-isobutyl-N-methyl-2-(1H-tetrazol-5-yl)benzamide]
9 | 7.30 | Cc1ccc(NC(=O)c2ccc(NC(=O)C3(c4ccc(C(F)(F)F)cc4F)CC3)cc2-c2nnn[nH]2)nc1 [Example 56, 4-[({1-[2-Fluoro-4-(trifluoromethyl)phenyl]cyclopropyl}carbonyl)amino]-N-(5-methylpyridin-2-yl)-2-(1H-tetrazol-5-yl)benzamide]
10 | 7.54 | Cc1ccc(NC(=O)c2ccc(NC(=O)C3(c4ccc(C(F)(F)F)cc4F)CC3)cc2-c2nnn[nH]2)cn1 [Example 57, 4-[({1-[2-Fluoro-4-(trifluoromethyl)phenyl]cyclopropyl}carbonyl)amino]-N-(6-methylpyridin-3-yl)-2-(1H-tetrazol-5-yl)benzamide]
11 | 7.29 | Cc1ccc(NC(=O)c2c(F)cc(NC(=O)C3(c4ccc(C(F)(F)F)cc4F)CC3)cc2-c2nnn[nH]2)nc1 [Example 63, 2-Fluoro-4-[({1-[2-fluoro-4-(trifluoromethyl)phenyl]cyclopropyl}carbonyl)amino]-N-(5-methylpyridin-2-yl)-6-(1H-tetrazol-5-yl)benzamide]
12 | 5.84 | Cc1ccc(NC(=O)c2c(C)cc(NC(=O)C3(c4ccc(C(F)(F)F)cc4F)CC3)cc2-c2nnn[nH]2)nc1 [Example 66, 4-[({1-[2-fluroo-4-(trifluoromethyl)phenyl]cyclopropyl}carbonyl)amino]-2-methyl-N-(5-methylpyridin-2-yl)-6-(1H-tetrazol-5-yl)benzamide]

Continued, compound first:

Row | Compound | pIC50
13 | CN(C(=O)c1ccc(NC(=O)C2(c3cccc(Cl)c3)CC2)cc1-c1nnn[nH]1)C1CCOCC1 [Example 46, 4-({[1-(3-Chlorophenyl)cyclopropyl]carbonyl}amino)-N-methyl-N-(tetrahydro-2H-pyran-4-yl)-2-(1H-tetrazol-5-yl)benzamide] | 5.48
14 | CN(C(=O)c1ccc(NC(=O)C2(c3ccc(C(F)(F)F)cc3F)CC2)cc1-c1nnn[nH]1)C1CCOCC1 [Example 47, 4-[({1-[2-Fluoro-4-(trifluoromethyl)phenyl]cyclopropyl}carbonyl)amino]-N-methyl-N-(tetrahydro-2H-pyran-4-yl)-2-(1H-tetrazol-5-yl)benzamide] | 6.35
15 | CN(CC1CCOCC1)C(=O)c1ccc(NC(=O)C2(c3ccc(C(F)(F)F)cc3F)CC2)cc1-c1nnn[nH]1 [Example 49, 4-[({1-[2-Fluoro-4-(trifluoromethyl)phenyl]cyclopropyl}carbonyl)amino]-N-methyl-N-(tetrahydro-2H-pyran-4-ylmethyl)-2-(1H-tetrazol-5-yl)benzamide] | 5.74
16 | CCOC(=O)c1c(F)cc(NC(=O)C2(c3ccc(C(F)(F)F)cc3F)CC2)cc1-c1nnn[nH]1 [Example 59, Ethyl 2-fluoro-4-[({1-[2-fluoro-4-(trifluoromethyl)phenyl]cyclopropyl}-carbonyl)amino]-6-(1H-tetrazol-5-yl)benzoate] | 8.30
17 | CCOC(=O)c1c(C)cc(NC(=O)C2(c3ccc(C(F)(F)F)cc3F)CC2)cc1-c1nnn[nH]1 [Example 60, Ethyl 4-[({1-[2-fluoro-4-(trifluoromethyl)phenyl]cyclopropyl}carbonyl)amino]-2-methyl-6-(1H-tetrazol-5-yl)benzoate] | 7.59
18 | O=C(OC1CCCC1)c1c(F)cc(NC(=O)C2(c3ccc(C(F)(F)F)cc3F)CC2)cc1-c1nnn[nH]1 [Example 61, Cyclopentyl 2-fluoro-4-[({1-[2-fluoro-4-(trifluoromethyl)phenyl]cyclopropyl}-carbonyl)amino]-6-(1H-tetrazol-5-yl)benzoate] | 8.70
19 | O=C(O[C@H]1CCOC1)c1c(F)cc(NC(=O)C2(c3ccc(C(F)(F)F)cc3F)CC2)cc1-c1nnn[nH]1 [Example 62, (3S)-tetrahydrofuran-3-yl 2-fluoro-4-[({1-[2-fluoro-4-(trifluoromethyl)phenyl]cyclopropyl}carbonyl)amino]-6-(1H-tetrazol-5-yl)benzoate] | 8.70
20 | Cc1cc(NC(=O)C2(c3ccc(C(F)(F)F)cc3F)CC2)cc(-c2nnn[nH]2)c1C(=O)OC1CCCC1 [Example 64, Cyclopentyl 4-[({1-[2-fluoro-4-(trifluoromethyl)phenyl]cyclopropyl}carbonyl)amino]-2-methyl-6-(1H-tetrazol-5-yl)benzoate] | 7.60
21 | Cc1cc(NC(=O)C2(c3ccc(C(F)(F)F)cc3F)CC2)cc(-c2nnn[nH]2)c1C(=O)O[C@H]1CCOC1 [Example 65, (3S)-tetrahydrofuran-3-yl 4-[({1-[2-fluoro-4-(trifluoromethyl)phenyl]cyclopropyl}carbonyl)amino]-2-methyl-6-(1H-tetrazol-5-yl)benzoate] | 7.21
